This is an account of results in PubChem BioAssay (NCI).

The structures appear in SMILES notation.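 Results reflect a 48-hour exposure of cells in 96-well plates to compound at five concentrations. TGI denotes the concentration required for complete inhibition of growth.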

Holding throughout (test): NCI tumour cell line growth inhibition, 48 h
The subject of assay [1] is M19-MEL melanoma.
Assay [2] has as its system SN12C renal.
For assay [3], the system named is RXF 393 renal.
The subject of assay [4] is LXFL 529 NSCLC.
Assay [5] concerns M14 melanoma.
The test system of assay [6] is UACC-62 melanoma.
Assay [7] relates to IGROV1 ovarian.
The subject of assay [8] is HOP-18 NSCLC.
The subject of assay [9] is COLO 205 colon.
For assay [10], the system named is U251 CNS.
In assay [11] the test system is A549 NSCLC.
Assay [12] deals with RXF-631 renal.
For assay [13], the system named is KM20L2 colon.

As for `N#Cc1c(-c2ccco2)cc(-c2ccc(NCc3nc4ccccc4[nH]3)cc2)nc1N`, the TGI in assay [1] came out at 63.4 µM; in assay [2] it was 59.6 µM; in assay [3], 68.5 µM; in assay [4], 42 µM; in [5] it was 35.8 µM; in assay [6], 45.1 µM. Besides, the TGI in assay [7] is over 100 µM; in assay [8], 77.9 µM; in assay [9], 47.9 µM; in [10] it was over 100 µM; in assay [11], 93.8 µM.
For the compound `COC(=O)C(CCCC1(c2ccccc2)OCCO1)C(C)=O` (stereo not given), the TGI in [1], in assay [2], in assay [3], in assay [12], in assay [4] and in [5] was over 100 µM in each case. Also, the TGI in assay [13], in assay [7], in assay [8], in assay [9], in [10] and in [11] was over 100 µM throughout.
For the compound `COc1cccc(NC(=S)Nn2c(C)nc3ccccc3c2=O)c1`, the TGI in assay [1], in assay [2], in [3], in assay [4], in assay [5] and in [6] was over 100 µM throughout. The TGI in assay [7], in [8], in assay [9], in [10] and in [11] was over 100 µM each time.
Take `CCCCc1c2c(nc3c1CCCC3O)/C(=C/c1ccccc1)CCC2` (stereo not given): the TGI in assay [1] is 57.1 µM; in [2], 62.5 µM; in assay [3] it was 71.7 µM; in assay [4], over 100 µM; in assay [5], 53.8 µM; in assay [6], 95.7 µM. Further, the TGI was 75.1 µM in assay [13]; over 100 µM in assay [7]; 89.5 µM in assay [8]; 33.4 µM in [9]; 64.1 µM in assay [10]; over 100 µM in assay [11].
With `CC1=C2C(=O)[C@H]3[C@@H](CC=C4C[C@@H](O)CC[C@@]43C)[C@@H]2CC[C@]12O[C@@H]1C[C@H](C)CN[C@H]1[C@H]2C`, the TGI in [1] is 85.3 µM; in [2] it was over 60.6 µM; in [3], over 53 µM; in assay [12], 50 µM; in assay [4] it was 33.7 µM; in [5], over 60.4 µM. The TGI in [6] is over 92.3 µM; in assay [13], 93.2 µM; in assay [7] it was over 96.4 µM; in assay [8], 31.3 µM; in assay [9] it was over 100 µM; in assay [10], over 55.5 µM. In [11], this compound returned a TGI of over 64.2 µM.
Take `Nc1nc(SCCNC(=O)CCc2ccc(O)cc2)nc2c1ncn2C1OC(CO)C(O)C1O` (stereo not given): the TGI in assay [1], in assay [2], in [5], in assay [6], in assay [13] and in [7] was over 203 µM in each case. For the same compound, the TGI in assay [8], in [9], in [10] and in assay [11] was over 203 µM in each case.
Take `Clc1ccc(SCCSCCCCCCCCCCSCCSc2ccc(Cl)cc2)cc1`: the TGI in assay [2], in assay [3], in [12], in assay [6], in [13] and in assay [7] was over 100 µM in each case. The TGI in assay [8], in [9], in [10] and in assay [11] was over 100 µM in each case.
`COc1cc2c(c(C)c1O)[C@H]1COc3ccccc3[C@H]1O2`: the TGI was determined as 25 µM in assay [1]; 54 µM in assay [3]; 29.8 µM in [12]; 31.1 µM in [4]; 24.6 µM in assay [5]; 63.9 µM in assay [13]. Also, the TGI came out at 31.3 µM in assay [7], 35.6 µM in assay [8], 52.2 µM in assay [9] and 81.6 µM in assay [11].
Consider `COC(=O)C1=C(C(=O)OC)C2(OC(C)=O)c3ccccc3-c3ccccc3C12` (stereo not given), for which the TGI in [1] is 8.79 µM; in assay [2] it was 9.28 µM; in assay [3] it was 9.17 µM; in [4] it was 3.38 µM; in assay [5], 9.47 µM; in [6], 24.4 µM. For the same compound, the TGI in assay [13] is 12.8 µM; in assay [7], 10.1 µM; in assay [8], 9.5 µM; in assay [9] it was 3.68 µM; in assay [10], 20.1 µM; in assay [11], 31.9 µM.
As for `CCCn1c(SCC)c2ccccc2c1-c1nc(F)nc(F)n1`, the TGI in assay [1], in [2], in [3], in [12], in [4] and in [5] was over 100 µM each time. Moreover, the TGI in assay [13], in [9], in [10] and in assay [11] was over 100 µM throughout.
`CSc1nc(-c2cc3c(c(SC)n2)CCCCC3)cc2c1CCCCC2`: the TGI is over 100 µM in assay [2]; over 100 µM in [3]; over 100 µM in [5]; over 100 µM in assay [6]; 85.9 µM in [7]; over 100 µM in assay [9]. Further, the TGI in assay [10] and in assay [11] was over 100 µM each time.
Turning to `COc1ccc(C2C3C(=O)C=CC(=O)C3[C@@H]2C)cc1OC` (stereo not given in full), the TGI in assay [1], in assay [3], in assay [12], in [4], in assay [5] and in assay [6] was over 100 µM throughout. Moreover, the TGI in [13], in assay [7], in [8], in [9], in assay [10] and in [11] was over 100 µM in each case.
`CC1(C)N=C(C(N)=O)c2ncn(-c3ccccc3)c2N1`: the TGI in assay [2], in assay [3], in assay [5], in assay [6], in [7] and in [9] was over 100 µM each time. For the same compound, the TGI in assay [10] and in assay [11] was over 100 µM in each case.
Take `N#Cc1c(-c2ccc([N+](=O)[O-])cc2)cc(-c2ccc(Nc3ccnc4cc(C(F)(F)F)ccc34)cc2)nc1N`: the TGI is 46.6 µM in assay [2]; 51.7 µM in [3]; 36.4 µM in assay [5]; over 100 µM in assay [6]; 29 µM in assay [7]; over 75.9 µM in [9]. In addition, the TGI in [10] turned out to be 21.9 µM; in assay [11], 26.8 µM.
Turning to `CCNC1(c2cccc(C)c2)OC(C)(C)c2cccc3cccc1c23` (stereo not given), the TGI is 35.9 µM in assay [2]; 32.1 µM in assay [3]; 38.1 µM in assay [5]; 31 µM in [6]; 37.5 µM in assay [7]; 34 µM in assay [9]. For the same compound, the TGI in [10] turned out to be 31.4 µM; in assay [11], 30.9 µM.
